# Structures can show the parent of a compound that is named as a salt. Where two headings read alike, the source gives them in different places.
# How the values were obtained:
# primary lymph node cells = assay: In vitro treatment of primary lymph node cells in FBS, Ki-67; format: cell-based, mouse; details: 8.75 mM in FBS, 37° C., 5 hours
# Experimental: For studies of the effects of pH modifier on proliferating cells, primary thymocytes or lymph node cells (4×10^6 cells/ml) were incubated in FBS comprising 10% of saline or 87.5 mM HCl, HOAc or NaOH prepared in saline in 37° C. water bath for 5 hours before analyses. The tumor cells (2×10^6 cells/ml) were incubated in FBS comprising 10% saline or 87.5 mM HCl, HOAc, or NaOH prepared in saline in 37° C. water bath for 3-5 hours.
# (§1) Cells were washed 3 times with PBS then stained with Zombie viability dyes at room temperature for 20 minutes. At the end of incubation, 10% volume of FBS was added to absorb excess Zombie dyes. After washes, the cells were stained with conjugated antibodies against surface antigens on ice. As specified in some experiments, the cells were subsequently stained with fluorochrome-conjugated Avidin. For Annexin V staining, cells were washed twice with plain PBS and once with Annexin V binging buffer (10 mM HEPES, pH7.4, 140 mM NaCl, 2.5 mM CaCl2)) after surface antigen staining, and incubated with fluorochrome-conjugated Annexin V in Annexin V binding buffer for 15 min at room temperature. The cells were washed twice in Annexin V binding buffer and resuspended in Annexin V binding buffer. 7-AAD was added to the cells before analyzed by flow cytometry. For Ki-67 and Foxp3 staining, lymphocytes (after Zombie dye and surface antigen staining) or tumor cells (without surface antigen staining) were fixed and permeabilized using Foxp3 staining buffer kit, then stained with PE-conjugated anti-mouse or human Ki-67 antibodies. (Biolegend, San Diego, Calif., USA). Stained and unstained cells were analyzed on Accuri C6 Flow Cytomer (Accuri Cytometers, Inc., Ann Arbor, Mich.), FACS Canto (BD Bioscience, San Jose, Calif., USA) and Attune™ cytometer (Invitrogen, Carlsbad, Calif.). Data analyses were carried out using FlowJo X.
# Thus, to assess the full potentials of the pH modifiers, in vitro experiments were carried out, in which primary lymph node cells were treated with saline or saline plus the pH modifiers in 100% FBS in 37° C. water bath. Such in vitro culture systems were designed to be free of interference by pH buffering agents in common tissue culture system. The final concentration of the pH modifiers in the in vitro cultures was set to be 8.75 mM.
# [1] = test system: mediastinal lymph node (MLN) cells; details: for percentage of Lym2 lymphocytes in MLN: saline 2.26%; for percentage of Ki-67hi B cells in Lym1: saline 3.91%; for percentage of Lym1 lymphocytes in MLN: saline 73.7%; for percentage of Ki-67hi Lym1 B cells: saline 4.29%; for percentage of Ki-67hi Lym2 B cells: saline 35.2%; for CD8 T cells within Lym1: saline 13.9%
# Experimental: For the analyses of the effects of pH modifiers on lymphocyte populations and their proliferation in vivo in Example 3, the mice were sensitized, challenged with OVA and received either i.t. or i.p. treatments. The same challenge and treatment solutions as in the asthma model were used. In the first set of experiments, the mice were challenged with 60 μl of 1×OVA challenge solution without pH modifiers by i.t. injection for 2 consecutive days. One day of the second challenge, the mice received one-time i.t. treatment with saline or saline plus HCl or HOAc. The mice were sacrificed the next day by CO2 inhalation to collect lymphoid tissues. In the second set of experiments, the mice were challenged with OVA and treated with i.t. instillation of saline or saline plus HCl or HOAc or treated with i.p. injection of saline plus NaOH for a total of 3 doses as in the asthma model. On day 3 after the final challenge and treatment, mice were sacrificed by CO2 inhalation to collect lymphoid tissues.
# as §1
# The DLNs are the primary location where active immune responses to local antigen exposure take place. The DLNs of the lungs are the mediastinal lymph nodes (MLNs). Two sets of experiments using the OVA sensitization and challenge models were carried out to investigate whether pH modifiers can affect lymphocyte populations and proliferation. In the first set of experiments, MLNs were collected from the mice 3 days after the first OVA challenge and 1 day after a single treatment. In the second set of experiments, MLNs were collected 7 days after the initial challenge and 3 days after the third treatments.
# [2] = test system: C57BL/6 mice fed high fat diet; assay: High fat diet obesity model; format: in vivo; details: for average reduction of intestinal length vs saline: entire intestines; for intestines vs saline (gross examination): from end of stomach to anus; for sizes of fat pads vs saline: gross; for loss of body weight: i.p. every other day, four doses, 3 days after final treatments, saline about 3%; for fold reduction of fat/bodyweight ratio vs saline / average fat/bodyweight ratio: i.p. four doses; for average fat/bodyweight ratio: saline 0.135
# Experimental: The obesity model was similar to those previously described. (95, 96). Female C57BL/6 mice of 4 weeks age were acclimated at CRADL for 1 week. After the acclimation, mice were switched to Gamma-irradiated high fat diet (Research Diets, New Brunswick, N.J., USA) (60% calories from fat). After 4 weeks of high fat diet, the mice were switched back to regular diet, and treated with i.p. injection of saline or saline plus HCl or HOAc. The bodyweight of each mouse was recorded before each treatment, and at the end of the experiment.
# In the obesity model of Example 10, after fed with high fat diet for 4 weeks, mice were weighed to record total body weight. The mice were switched to regular diet and randomly divided into groups to receive i.p. treatments with saline or saline plus HCl, HOAc or NaOH. The mice continued to receive i.p. treatments on every other day for 3 additional doses. Four days after the final treatments, mice were sacrificed, their total body weights were measured, fat pads, and internal organs were collected, weighed, and analyzed.
# Obesity was induced in C57BL/6 mice by feeding young (5 weeks old) female mice with high fat diet for 4 weeks. The mice were then switched to normal diet and randomly divided into groups to receive i.p. treatments with saline or saline plus HCl, HOAc or NaOH every other day for a total of four doses. The mice were analyzed 3 days after the final treatments.
# [3] = test system: inflammatory cells in the BALF; assay: Asthma model: BALF cellularity and cell differentials; format: in vivo, Balb/c mice; details: i.t. HCl or HOAc, i.p. NaOH, every other day x3; day 3 after final challenge; saline 3.06×10^6
# [4] = test system: inflammatory infiltration in the lung tissues; assay: Asthma model: H&E staining of lung tissue; details: i.t. HOAc or HCl; i.p. NaOH
# [5] = test system: mucus secretion in the lungs; assay: Asthma model: PAS staining of lung tissue; details: i.t. HOAc or HCl; i.p. NaOH
# [6] = 1 day after single i.t. treatment
# [7] = 1 day after single i.t. treatment, saline 4.5×10^7
# [8] = 3 days after third treatment, saline 5.96×10^7
structure (smiles),measurement,setting,value
"Cl [HCl, hydrochloric acid]","Ki-67+ cells in live total lymphocytes, CD4, CD8 T cells and B cells",primary lymph node cells,almost eliminated all Ki-67^+
same,reduction of total MLN cells vs saline,[1]; [6],12%
same,average number of total MLN cells,[1]; [7],4.0×10^7
same,reduction of total MLN cells vs saline,[1]; 3 days after third treatment,5.5%
same,average number of total MLN cells,[1]; [8],5.6×10^7
same,percentage of Lym2 lymphocytes in MLN,[1]; first set,2.83%
same,percentage of Ki-67hi Lym1 cells,"[1]; first set, saline 3.31%",2.92%
same,percentage of Ki-67hi B cells in Lym1,[1]; first set,2.79%
same,CD8 T cells within Lym2,"[1]; first set, saline 9.69%",8.2%
same,CD4 T cells within Lym2,"[1]; first set, saline 14.2%",13.4%
same,B cells within Lym1,"[1]; first set, saline 42.5%",34.4%
same,percentage of Ki-67hi Lym2 cells,"[1]; first set, saline 54.5%",49.1%
same,B cells within Lym2,"[1]; first set, saline 62.6%",44.8%
same,percentage of Ki-67hi B cells in Lym2,"[1]; first set, saline 62.6%",51.1%
same,percentage of Lym1 lymphocytes in MLN,[1]; first set,68.3%
same,Ki-67 mean fluorescence intensities of Ki-67hi Lym2 and Lym2 B cells vs saline,[1]; second set,much lower
same,percentage of Ki-67hi Lym1 cells,"[1]; second set, saline 2.73%",2.42%
same,percentage of Ki-67hi Lym1 B cells,[1]; second set,3.62%
same,percentage of Ki-67hi Lym2 cells,"[1]; second set, saline 34.9%",34.9%
same,percentage of Ki-67hi Lym2 B cells,[1]; second set,35.5%
same,average reduction of intestinal length vs saline,[2],about 31%
same,intestines vs saline (gross examination),[2],drastically shortened
same,sizes of fat pads vs saline,[2],much smaller
same,loss of body weight,[2],about 25%
same,fold reduction of fat/bodyweight ratio vs saline,[2],5 fold
same,average fat/bodyweight ratio,[2],0.027
same,total inflammatory cells in the BALF (average),[3],1.07×10^6 per mouse
same,inflammatory infiltration in the lungs (H&E),[4],diminished
same,mucus secretion (PAS staining) in the lungs,[5],only faint PAS staining
"CC(=O)O [HOAc, acetic acid]","Ki-67+ cells in live total lymphocytes, CD4, CD8 T cells and B cells",primary lymph node cells,almost eliminated all Ki-67^+
same,reduction of total MLN cells vs saline,[1]; [6],84%
same,average number of total MLN cells,[1]; [7],0.75×10^7
same,reduction of total MLN cells vs saline,[1]; 3 days after third treatment,29%
same,average number of total MLN cells,[1]; [8],4.23×10^7
same,percentage of Lym2 lymphocytes in MLN,[1]; first set,0.35%
same,percentage of Ki-67hi Lym1 cells,"[1]; first set, saline 3.31%",1.65%
same,percentage of Ki-67hi B cells in Lym1,[1]; first set,1.58%
same,CD8 T cells within Lym2,"[1]; first set, saline 9.69%",2.7%
same,CD8 T cells within Lym1,[1]; first set,1.75%
same,CD4 T cells within Lym2,"[1]; first set, saline 14.2%",3.23%
same,CD4 T cells within Lym1,"[1]; first set, saline 39.6%",8.17%
same,B cells within Lym1,"[1]; first set, saline 42.5%",22.2%
same,percentage of Ki-67hi Lym2 cells,"[1]; first set, saline 54.5%",27.2%
same,B cells within Lym2,"[1]; first set, saline 62.6%",46.9%
same,percentage of Ki-67hi B cells in Lym2,"[1]; first set, saline 62.6%",37.9%
same,percentage of Lym1 lymphocytes in MLN,[1]; first set,32.4%
same,percentage of Ki-67lo cells in Lym1,"[1]; first set, saline 80.4%",32.9%
same,Ki-67 mean fluorescence intensities of Ki-67hi Lym2 and Lym2 B cells vs saline,[1]; second set,much lower
same,increase of B cells within Lym1 vs saline,[1]; second set,60.4%
same,reduction of CD4 T cells within Lym1 vs saline,[1]; second set,19.3%
same,reduction of CD4 T cells within Lym2 vs saline,[1]; second set,88%
same,reduction of CD8 T cells within Lym1 vs saline,[1]; second set,46.8%
same,reduction of CD8 T cells within Lym2 vs saline,[1]; second set,91.7%
same,percentage of Ki-67hi Lym1 cells,"[1]; second set, saline 2.73%",2.67%
same,CD8 T cells within Lym2,"[1]; second set, saline 4.21%",0.35%
same,percentage of Ki-67hi Lym1 B cells,[1]; second set,2.38%
same,CD4 T cells within Lym2,"[1]; second set, saline 6.91%",0.8%
same,percentage of Lym2 in MLN,"[1]; second set, saline 8.10%",38.7%
same,CD8 T cells within Lym1,[1]; second set,7.39%
same,B cells within Lym1,"[1]; second set, saline 27.3%",43.8%
same,percentage of Ki-67hi Lym2 cells,"[1]; second set, saline 34.9%",25.3%
same,percentage of Ki-67hi Lym2 B cells,[1]; second set,24.9%
same,CD4 T cells within Lym1,"[1]; second set, saline 54.9%",44.3%
same,B cells within Lym2,"[1]; second set, saline 84%",93%
same,average reduction of intestinal length vs saline,[2],~12%
same,intestines vs saline (gross examination),[2],drastically shortened
same,sizes of fat pads vs saline,[2],much smaller
same,loss of body weight,[2],~15%
same,fold reduction of fat/bodyweight ratio vs saline,[2],3 fold
same,average fat/bodyweight ratio,[2],0.045
same,total inflammatory cells in the BALF (average),[3],9.01×10^5 per mouse
same,inflammatory infiltration in the lungs (H&E),[4],diminished
same,mucus secretion (PAS staining) in the lungs,[5],only faint PAS staining
"[Na+].[OH-] [NaOH, sodium hydroxide]",percentages of Ki-67+ cells in CD4 T cells and B cells vs saline,primary lymph node cells,nearly tripled
same,percentages of Ki-67+ cells in total lymphocytes and CD8 T cells vs saline,primary lymph node cells,more than tripled
same,increase of total MLN cells vs saline,[1]; 3 days after third i.p. treatment,32%
same,average number of total MLN cells,[1]; [8],7.9×10^7
same,Ki-67 mean fluorescence intensities of Ki-67hi Lym2 and Lym2 B cells vs saline,[1]; second set,higher
same,percentage of Ki-67hi Lym1 cells,"[1]; second set, saline 2.73%",3.48%
same,percentage of Ki-67hi Lym1 B cells,[1]; second set,4.23%
same,percentage of Ki-67hi Lym2 cells,"[1]; second set, saline 34.9%",42.2%
same,percentage of Ki-67hi Lym2 B cells,[1]; second set,44.7%
same,average reduction of intestinal length vs saline,[2],about 2%
same,intestines vs saline (gross examination),[2],only slightly shortened
same,sizes of fat pads vs saline,[2],somewhat reduced
same,loss of body weight,[2],about 17%
same,average fat/bodyweight ratio,[2],0.106
same,total inflammatory cells in the BALF (average),[3],2.18×10^6 per mouse
same,inflammatory infiltration in the lungs (H&E),[4],"prominent in the perivascular areas, but not very noticeable in the peribronchial areas"
same,mucus secretion (PAS staining) in the lungs,[5],no reduction of mucus secretion or PAS staining
